Earlier results on 2 compounds are cited in publication PMC9798770 (ACS Omega, 2022).

The data set deals with SARS-CoV-2.

One may read the EC50 as the concentration needed to bring the measured effect to its halfway point. With `Cc1ccc(N)cc1C(=O)N[C@H](C)c1cccc2ccccc12` [GRL0617], the 50% effective concentration (EC50) (read-out: EC50, antiviral activity) is ~20 µM.
`C[C@H](c1cccc2ccccc12)N(C)Cc1ccc(O)cc1` [Jun9-72-2]: the “antiviral activity compared with GRL0617” value was “higher”.
